Test results from patent publication US6737383B1, “Herbicidal oxadiazolidines” (priority 1999, dated 2004).

Columns and labels:
rice = experiment: Test B flood test rice; type: in vivo, Oryza sativa; details: for Plant response rating, Rice (0 to 10 scale, 0 is no effect, 10 is complete control): Rate 62 g/ha; for Plant response rating, Rice (0 to 10 scale, 0 is no effect, 10 is complete control) / Rice plant response rating: Pre-emergence; for Plant response rating, Rice (0 to 10 scale, 0 is no effect, 10 is complete control) / Rice plant response rating (0 to 10 scale, 0 is no effect, 10 is complete control): visual evaluation after twelve to sixteen days; for Rice plant response rating (0 to 10 scale, 0 is no effect, 10 is complete control): Rate 125 g/ha, under heading Pre-emergence
How it was run: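 Each value is a visual injury score relative to controls, with 10 meaning complete control and 0 no effect. Evaluation took place twelve to sixteen days after the 2-leaf-stage plants were treated and kept in the greenhouse.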

crabgrass = experiment: Test B pre/postemergence crabgrass; type: in vivo, Digitaria sanguinalis; details: for Crabgrass plant response rating: scale of 0 to 10 where 0 is no effect and 10 is complete control
How it was run: (§1)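 Response is a visual 0-to-10 score relative to untreated plants, where 0 means no effect and 10 means complete control, taken twelve to sixteen days after application. Treatments went onto soil at planting and onto foliage of 1- to 4-leaf plants, using a surfactant-containing non-phytotoxic solvent.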

velvetleaf = experiment: Test B pre/postemergence velvetleaf; type: in vivo, Abutilon theophrasti; details: for Velvetleaf plant response rating: scale of 0 to 10 where 0 is no effect and 10 is complete control
How it was run: as §1

corn = experiment: Test B pre/postemergence corn; type: in vivo, Zea mays; details: for Corn plant response rating: scale of 0 to 10 where 0 is no effect and 10 is complete control
How it was run: as §1

[1] = Rate 250 g/ha, flood-test species, scale 0 to 10, 0 is no effect, 10 is complete control
[2] = Rate 500 g/ha, flood test species, scale 0 to 10 (0 no effect, 10 complete control)
[3] = Postemergence, Rate 125 g/ha, scale 0 to 10, 0 is no effect, 10 is complete control
[4] = Postemergence, Rate 250 g/ha, scale 0 to 10, 0 is no effect, 10 is complete control
[5] = Preemergence, Rate 62 g/ha, scale 0 to 10 (0 no effect, 10 complete control)
[6] = Rate 500 g/ha, Postemergence, scale 0 to 10, 0 no effect, 10 complete control

CC(C)N(C(=O)n1oc(=O)n(CCl)c1=O)c1ccc(F)cc1 [Compound 376]
Plant response rating, Rice (0 to 10 scale, 0 is no effect, 10 is complete control) (rice; flood test species): 0 | Rice plant response rating (0 to 10 scale, 0 is no effect, 10 is complete control) (rice; flood test species): 0 | Rice plant response rating (rice; [1]): 0 | Rice plant response rating (rice; [2]): 0 | Plant response rating, Crabgrass (crabgrass; [3]): 0 | Plant response rating, Crabgrass (crabgrass; [4]): 0 | Plant response rating, Crabgrass (crabgrass; [5]): 0 | Crabgrass plant response rating (0 to 10 scale) (crabgrass; Preemergence, Rate 125 g/ha): 0 | Crabgrass plant response rating (crabgrass; Preemergence, Rate 250 g/ha): 0 | Crabgrass plant response rating (crabgrass; Preemergence, Rate 500 g/ha): 0 | Crabgrass plant response rating (crabgrass; Rate 62 g/ha, Postemergence): 0 | Plant response rating, Crabgrass (crabgrass; [6]): 0 | Plant response rating, Velvetleaf (velvetleaf; [3]): 0 | Plant response rating, Velvetleaf (velvetleaf; [4]): 0 | Plant response rating, Velvetleaf (velvetleaf; [5]): 0 | Velvetleaf plant response rating (0 to 10 scale) (velvetleaf; Preemergence, Rate 125 g/ha): 0 | Velvetleaf plant response rating (velvetleaf; Preemergence, Rate 250 g/ha): 0 | Velvetleaf plant response rating (velvetleaf; Preemergence, Rate 500 g/ha): 0 | Velvetleaf plant response rating (velvetleaf; Rate 62 g/ha, Postemergence): 0 | Plant response rating, Velvetleaf (velvetleaf; [6]): 0 | Plant response rating, Corn (corn; [3]): 0 | Plant response rating, Corn (corn; [4]): 0 | Plant response rating, Corn (corn; [5]): 0 | Corn plant response rating (0 to 10 scale) (corn; Preemergence, Rate 125 g/ha): 0 | Corn plant response rating (corn; Preemergence, Rate 250 g/ha): 0 | Corn plant response rating (corn; Preemergence, Rate 500 g/ha): 0 | Corn plant response rating (corn; Rate 62 g/ha, Postemergence): 0 | Plant response rating, Corn (corn; [6]): 0

Cc1nnsc1Cn1c(=O)on(C(=O)N(c2ccccc2)C(C)C)c1=O [Compound 378]
Plant response rating, Rice (0 to 10 scale, 0 is no effect, 10 is complete control) (rice; flood test species): 0 | Rice plant response rating (0 to 10 scale, 0 is no effect, 10 is complete control) (rice; flood test species): 0 | Rice plant response rating (rice; [1]): 0 | Rice plant response rating (rice; [2]): 0 | Plant response rating, Crabgrass (crabgrass; [3]): 0 | Plant response rating, Crabgrass (crabgrass; [4]): 0 | Plant response rating, Crabgrass (crabgrass; [5]): 0 | Crabgrass plant response rating (0 to 10 scale) (crabgrass; Preemergence, Rate 125 g/ha): 3 | Crabgrass plant response rating (crabgrass; Preemergence, Rate 250 g/ha): 9 | Crabgrass plant response rating (crabgrass; Preemergence, Rate 500 g/ha): 10 | Crabgrass plant response rating (crabgrass; Rate 62 g/ha, Postemergence): 0 | Plant response rating, Crabgrass (crabgrass; [6]): 2 | Plant response rating, Velvetleaf (velvetleaf; [3]): 0 | Plant response rating, Velvetleaf (velvetleaf; [4]): 0 | Plant response rating, Velvetleaf (velvetleaf; [5]): 0 | Velvetleaf plant response rating (0 to 10 scale) (velvetleaf; Preemergence, Rate 125 g/ha): 0 | Velvetleaf plant response rating (velvetleaf; Preemergence, Rate 250 g/ha): 0 | Velvetleaf plant response rating (velvetleaf; Preemergence, Rate 500 g/ha): 0 | Velvetleaf plant response rating (velvetleaf; Rate 62 g/ha, Postemergence): 0 | Plant response rating, Velvetleaf (velvetleaf; [6]): 3 | Plant response rating, Corn (corn; [3]): 0 | Plant response rating, Corn (corn; [4]): 0 | Plant response rating, Corn (corn; [5]): 0 | Corn plant response rating (0 to 10 scale) (corn; Preemergence, Rate 125 g/ha): 0 | Corn plant response rating (corn; Preemergence, Rate 250 g/ha): 0 | Corn plant response rating (corn; Preemergence, Rate 500 g/ha): 0 | Corn plant response rating (corn; Rate 62 g/ha, Postemergence): 0 | Plant response rating, Corn (corn; [6]): 0

Cc1nnsc1Cn1c(=O)on(C(=O)N(c2ccc(F)cc2)C(C)C)c1=O [Compound 380]
Plant response rating, Rice (0 to 10 scale, 0 is no effect, 10 is complete control) (rice; flood test species): 0 | Rice plant response rating (0 to 10 scale, 0 is no effect, 10 is complete control) (rice; flood test species): 0 | Rice plant response rating (rice; [1]): 0 | Rice plant response rating (rice; [2]): 0 | Plant response rating, Crabgrass (crabgrass; [3]): 1 | Plant response rating, Crabgrass (crabgrass; [4]): 2 | Plant response rating, Crabgrass (crabgrass; [5]): 1 | Crabgrass plant response rating (0 to 10 scale) (crabgrass; Preemergence, Rate 125 g/ha): 7 | Crabgrass plant response rating (crabgrass; Preemergence, Rate 250 g/ha): 7 | Crabgrass plant response rating (crabgrass; Preemergence, Rate 500 g/ha): 9 | Crabgrass plant response rating (crabgrass; Rate 62 g/ha, Postemergence): 0 | Plant response rating, Crabgrass (crabgrass; [6]): 7 | Plant response rating, Velvetleaf (velvetleaf; [3]): 0 | Plant response rating, Velvetleaf (velvetleaf; [4]): 0 | Plant response rating, Velvetleaf (velvetleaf; [5]): 0 | Velvetleaf plant response rating (0 to 10 scale) (velvetleaf; Preemergence, Rate 125 g/ha): 0 | Velvetleaf plant response rating (velvetleaf; Preemergence, Rate 250 g/ha): 0 | Velvetleaf plant response rating (velvetleaf; Preemergence, Rate 500 g/ha): 0 | Velvetleaf plant response rating (velvetleaf; Rate 62 g/ha, Postemergence): 0 | Plant response rating, Velvetleaf (velvetleaf; [6]): 3 | Plant response rating, Corn (corn; [3]): 0 | Plant response rating, Corn (corn; [4]): 0 | Plant response rating, Corn (corn; [5]): 0 | Corn plant response rating (0 to 10 scale) (corn; Preemergence, Rate 125 g/ha): 0 | Corn plant response rating (corn; Preemergence, Rate 250 g/ha): 0 | Corn plant response rating (corn; Preemergence, Rate 500 g/ha): 0 | Corn plant response rating (corn; Rate 62 g/ha, Postemergence): 0 | Plant response rating, Corn (corn; [6]): 0
